Measurements from patent publication US20180000085A1, “USE OF PICOLINAMIDE COMPOUNDS WITH FUNGICIDAL ACTIVITY” (DOW AGROSCIENCES LLC, priority 2014, published 2018).

What was measured:
Puccinia triticina = assay: Wheat brown rust (PUCCRT) disease control on wheat seedlings; type: in vivo; set-up: key to PUCCRT 3DC, HV activity at 100 ppm (% control rating) / PUCCRT disease control, 3DC / PUCCRT 1DP disease control rating, HV activity / PUCCRT 3DC disease control rating, HV activity / PUCCRT 3DC, LV activity at 125.1 g/H (% Control rating) / PUCCRT 1DP, LV activity at 125.1 g/H (% Control rating) / PUCCRT 3DC disease control rating, LV activity at 125.1 g/H / PUCCRT 1DP disease control rating, LV activity at 125.1 g/H / PUCCRT 3DC disease control rating, HV activity at 100 ppm / PUCCRT 1DP disease control rating, HV activity at 100 ppm / HV activity at 100 ppm PUCCRT 3DC (disease control rating) / LV activity at 125.1 g/H PUCCRT 1DP (disease control rating) / LV activity at 125.1 g/H PUCCRT 3DC (disease control rating): A: > 80; B: ≤ 80; C: Not Tested; D: No Activity Observed in the Reported Assay; conditions: for PUCCRT 1DP disease control rating, HV activity / PUCCRT 3DC disease control rating, HV activity: HV application at 100 ppm; for PUCCRT 1DP, LV activity at 125.1 g/H (% Control rating) / PUCCRT 3DC, LV activity at 125.1 g/H (% Control rating): low volume application
Experimental: All fungicides were evaluated using the aforementioned method for their activity vs. all target diseases, unless stated otherwise. Wheat leaf blotch and brown rust activity were also evaluated using track spray applications, in which case the fungicides were formulated as EC formulations, containing 0.1% Trycol 5941 in the spray solutions. Wheat plants (variety Yuma) were grown from seed in a greenhouse in 50% mineral soil/50% soil-less Metro mix until the first leaf was fully emerged, with 7-10 seedlings per pot. These plants were inoculated with an aqueous spore suspension of Zymoseptoria tritici either prior to or after fungicide treatments. After inoculation the plants were kept in 100% relative humidity (one day in a dark dew chamber followed by two to three days in a lighted dew chamber at 20° C.) to permit spores to germinate and infect the leaf. The plants were then transferred to a greenhouse set at 20° C. for disease to develop. When disease symptoms were fully expressed on the 1st leaves of untreated plants, infection levels were assessed on a scale of 0 to 100 percent disease severity. Percent disease control was calculated using the ratio of disease severity on treated plants relative to untreated plants. Example B: Evaluation of Fungicidal Activity: Wheat Brown Rust (Puccinia triticina; Synonym: Puccinia recondita f. sp. Tritici; Bayer Code PUCCRT) Wheat plants (variety Yuma) were grown from seed in a greenhouse in 50% mineral soil/50% soil-less Metro mix until the first leaf was fully emerged, with 7-10 seedlings per pot. These plants were inoculated with an aqueous spore suspension of Puccinia triticina either prior to or after fungicide treatments. […] The plants were then transferred to a greenhouse set at 24° C. for disease to develop. Fungicide formulation, application and disease assessment followed the procedures as described in the Example A.

Zymoseptoria tritici = assay: Leaf blotch of wheat (SEPTTR) disease control on wheat seedlings; type: in vivo; set-up: key to SEPTTR 1DP, HV activity at 100 ppm (% control rating) / SEPTTR 3DC, HV activity at 100 ppm (% control rating) / SEPTTR disease control, 1DP / SEPTTR disease control, 3DC / SEPTTR 1DP disease control rating, HV activity / SEPTTR 3DC disease control rating, HV activity / SEPTTR 3DC, LV activity at 125.1 g/H (% Control rating) / SEPTTR 1DP, LV activity at 125.1 g/H (% Control rating) / SEPTTR 1DP disease control rating, LV activity at 125.1 g/H / SEPTTR 3DC disease control rating, LV activity at 125.1 g/H / SEPTTR 3DC disease control rating, HV activity at 100 ppm / SEPTTR 1DP disease control rating, HV activity at 100 ppm / HV activity at 100 ppm SEPTTR 3DC (disease control rating) / HV activity at 100 ppm SEPTTR 1DP (disease control rating) / LV activity at 125.1 g/H SEPTTR 1DP (disease control rating) / LV activity at 125.1 g/H SEPTTR 3DC (disease control rating): A: > 80; B: ≤ 80; C: Not Tested; D: No Activity Observed in the Reported Assay; conditions: for SEPTTR 1DP disease control rating, HV activity / SEPTTR 3DC disease control rating, HV activity: HV application at 100 ppm; for SEPTTR 1DP, LV activity at 125.1 g/H (% Control rating) / SEPTTR 3DC, LV activity at 125.1 g/H (% Control rating): low volume application
Experimental: All fungicides were evaluated using the aforementioned method for their activity vs. all target diseases, unless stated otherwise. Wheat leaf blotch and brown rust activity were also evaluated using track spray applications, in which case the fungicides were formulated as EC formulations, containing 0.1% Trycol 5941 in the spray solutions. Wheat plants (variety Yuma) were grown from seed in a greenhouse in 50% mineral soil/50% soil-less Metro mix until the first leaf was fully emerged, with 7-10 seedlings per pot. These plants were inoculated with an aqueous spore suspension of Zymoseptoria tritici either prior to or after fungicide treatments. After inoculation the plants were kept in 100% relative humidity (one day in a dark dew chamber followed by two to three days in a lighted dew chamber at 20° C.) to permit spores to germinate and infect the leaf. The plants were then transferred to a greenhouse set at 20° C. for disease to develop. When disease symptoms were fully expressed on the 1st leaves of untreated plants, infection levels were assessed on a scale of 0 to 100 percent disease severity. Percent disease control was calculated using the ratio of disease severity on treated plants relative to untreated plants.

[1] = 1 Day Protectant, wheat brown rust
[2] = 3 Day Curative, wheat brown rust
[3] = 1 Day Protectant, wheat leaf blotch
[4] = 3 Day Curative, wheat leaf blotch
[5] = high volume application, 100 ppm, 1 day protectant
[6] = high volume application, 100 ppm, 3 day curative

Row | Structure (SMILES) | PUCCRT 1DP disease control rating, HV activity (Puccinia triticina; [1]) | PUCCRT 3DC disease control rating, HV activity (Puccinia triticina; [2]) | SEPTTR 1DP disease control rating, HV activity (Zymoseptoria tritici; [3]) | SEPTTR 3DC disease control rating, HV activity (Zymoseptoria tritici; [4]) | other results
1 | CC[C@H](Oc1ccccc1)[C@@H](Oc1ccccc1)[C@H](C)OC(=O)[C@H](C)NC(=O)c1nccc(OC)c1O [Cmpd 309] | A (> 80) | A (> 80) | A (> 80) | B (≤ 80) | 
2 | C=C[C@H](C)[C@@H](Oc1ccccc1)[C@H](C)OC(=O)[C@H](C)NC(=O)c1nccc(OC)c1O [Cmpd 415] | A (> 80) | A (> 80) | A (> 80) | A (> 80) | 
3 | Cc1ccc(O[C@H](CC(C)C)[C@H](C)OC(=O)[C@H](C)NC(=O)c2ncccc2O)c(Cl)c1 [Cmpd 1038] |  |  |  |  | HV activity at 100 ppm PUCCRT 1DP (disease control rating) (Puccinia triticina; HV application, 100 ppm, 1 Day Protectant, wheat brown rust): A (> 80); HV activity at 100 ppm PUCCRT 3DC (disease control rating) (Puccinia triticina; HV application, 100 ppm, 3 Day Curative, wheat brown rust): B (≤ 80); HV activity at 100 ppm SEPTTR 1DP (disease control rating) (Zymoseptoria tritici; HV application, 100 ppm, 1 Day Protectant, wheat leaf blotch): D; HV activity at 100 ppm SEPTTR 3DC (disease control rating) (Zymoseptoria tritici; HV application, 100 ppm, 3 Day Curative, wheat leaf blotch): B (≤ 80)
4 | COc1ccnc(C(=O)N[C@@H](C)C(=O)O[C@@H](C)[C@H](Oc2ccc(Cl)cc2)C(C)C)c1OCOC(=O)C(C)C [Cmpd 573] |  |  |  |  | PUCCRT 1DP, LV activity at 125.1 g/H (% Control rating) (Puccinia triticina; 1 Day Protectant): A (> 80); PUCCRT 3DC, LV activity at 125.1 g/H (% Control rating) (Puccinia triticina; 3 Day Curative): A (> 80); SEPTTR 1DP, LV activity at 125.1 g/H (% Control rating) (Zymoseptoria tritici; 1 Day Protectant): A (> 80); SEPTTR 3DC, LV activity at 125.1 g/H (% Control rating) (Zymoseptoria tritici; 3 Day Curative): A (> 80)
5 | CCC(C)C(NC(=O)c1nccc(OC)c1O)C(=O)OC(C)C(Oc1cc(F)ccc1F)C(C)C (centres unmarked) [Cmpd 395] | B (≤ 80) | D | B (≤ 80) | B (≤ 80) | 
6 | CCC(CC)[C@@H](Oc1cc(F)ccc1F)[C@H](C)OC(=O)[C@@H](NC(=O)c1nccc(OC)c1O)C(C)C [Cmpd 409] | B (≤ 80) | B (≤ 80) | D | D | 
7 | COc1ccnc(C(=O)N[C@@H](C)C(=O)O[C@@H](C)[C@H](Oc2ccc(C)cc2)C2CC2)c1O [Cmpd 1010] |  |  |  |  | PUCCRT 1DP disease control rating, HV activity at 100 ppm (Puccinia triticina; [5]): A (> 80); PUCCRT 3DC disease control rating, HV activity at 100 ppm (Puccinia triticina; [6]): A (> 80); SEPTTR 1DP disease control rating, HV activity at 100 ppm (Zymoseptoria tritici; [5]): B (≤ 80); SEPTTR 3DC disease control rating, HV activity at 100 ppm (Zymoseptoria tritici; [6]): B (≤ 80)
8 | COc1ccnc(C(=O)N[C@@H](C)C(=O)O[C@@H](C)[C@H](Oc2ccc(Cl)cc2Cl)c2ccccc2)c1OC(C)=O [Cmpd 635] |  |  |  |  | PUCCRT 1DP, LV activity at 125.1 g/H (% Control rating) (Puccinia triticina; 1 Day Protectant): A (> 80); PUCCRT 3DC, LV activity at 125.1 g/H (% Control rating) (Puccinia triticina; 3 Day Curative): B (≤ 80); SEPTTR 1DP, LV activity at 125.1 g/H (% Control rating) (Zymoseptoria tritici; 1 Day Protectant): A (> 80); SEPTTR 3DC, LV activity at 125.1 g/H (% Control rating) (Zymoseptoria tritici; 3 Day Curative): A (> 80)
